Experimental findings from ChEMBL document CHEMBL1201862, “PubChem BioAssay data set” (2004) are described below.

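All cell lines were grown in 96-well plates and treated with compound for 48 hours. At the GI50, growth is halved.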 Active and inactive are the calls of the source. Cut-off read from the data, not from the text of the source: active = GI50 up to about 1.1 µM and inactive = higher.

Among the test systems are OVCAR-3; A498; NCI-H460; CAKI-1; IGROV-1; NCI-H522; HCC 2998; MCF7; U-251; KM12; SK-MEL-28; SNB-75; OVCAR-8; SW-620; DU-145; NCI-H226; ACHN; HCT-15; NCI-H23; A549.
Common to all, as to assay: DTP human tumour cell line panel, 48 h

A word on the GI50: it is the concentration giving 50% growth inhibition. For the compound `Cc1nc2ccc(NC3OCC(O)C(O)C3O)cc2c(=O)n1-c1ccccc1` (stereo not drawn), the GI50 in the test with OVCAR-3, in the test with A498, with NCI-H460, in the test with CAKI-1, in the test with IGROV-1 and in the test on NCI-H522 was > 100 µM (inactive) in each case. Also, the GI50 in the test on HCC 2998, in the test on MCF7, with U-251, in the test on KM12, in the test with SK-MEL-28 and with SNB-75 was > 100 µM (inactive) in each case. Also, the GI50 with OVCAR-8 was > 100 µM (inactive); with SW-620, > 100 µM (inactive); in the test with DU-145 it was > 100 µM (inactive); in the test on NCI-H226, > 100 µM (inactive); with ACHN it was > 100 µM (inactive); in the test on HCT-15, over 100 µM. Further, in the test on NCI-H23, the GI50 is > 100 µM (inactive).
For the compound `OCC(CO)CC1COc2ccccc2O1` (stereo not drawn), the GI50 in the test with OVCAR-3, in the test on A498, in the test with NCI-H460, in the test on CAKI-1, in the test on IGROV-1 and in the test on NCI-H522 was > 10 µM (inactive) throughout. In addition, the GI50 with A549, in the test on HCC 2998, in the test with MCF7, with U-251, in the test on KM12 and in the test on SK-MEL-28 was > 10 µM (inactive) in each case. Further, the GI50 in the test on SNB-75, in the test on OVCAR-8, in the test with SW-620, in the test on DU-145, with NCI-H226 and in the test with ACHN was > 10 µM (inactive) each time. In addition, the GI50 in the test on HCT-15 is over 10 µM; in the test on NCI-H23, > 10 µM (inactive).
With `CCOC(=O)N1CCN(C(=O)Nc2cccc3ccccc23)CC1`, the GI50 in the test with OVCAR-3, with A498, in the test on NCI-H460, in the test on CAKI-1, in the test with IGROV-1 and in the test with NCI-H522 was > 10 µM (inactive) each time. Also, the GI50 in the test on A549, in the test with HCC 2998, with MCF7, in the test with U-251, with KM12 and with SK-MEL-28 was > 10 µM (inactive) throughout. For the same compound, the GI50 in the test on SNB-75, in the test on OVCAR-8, in the test on SW-620, in the test on DU-145, in the test with NCI-H226 and with ACHN was > 10 µM (inactive) throughout. Further, the GI50 is over 10 µM in the test on HCT-15 and > 10 µM (inactive) with NCI-H23.
Consider `C=CCN1C(=O)/C(=C/c2cccs2)N=C1SC1OC(COC(=O)c2ccccc2)C(OC(=O)c2ccccc2)C1OC(=O)c1ccccc1` (stereo not drawn), for which the GI50 in the test on OVCAR-3 was > 100 µM (inactive); in the test on A498, > 100 µM (inactive); in the test with NCI-H460, > 100 µM (inactive); in the test with CAKI-1, > 100 µM (inactive); in the test with IGROV-1 it was > 100 µM (inactive); with NCI-H522, 11.4 µM (inactive). In addition, the GI50 was > 100 µM (inactive) in the test on HCC 2998; 36.6 µM (inactive) in the test with MCF7; > 100 µM (inactive) with U-251; > 100 µM (inactive) with KM12; > 100 µM (inactive) in the test on SK-MEL-28; > 100 µM (inactive) in the test on SNB-75. Also, the GI50 was > 100 µM (inactive) in the test with OVCAR-8; > 100 µM (inactive) in the test with SW-620; > 100 µM (inactive) in the test with DU-145; > 100 µM (inactive) in the test on NCI-H226; > 100 µM (inactive) with ACHN; over 100 µM in the test with HCT-15. The GI50 in the test on NCI-H23 is > 100 µM (inactive).
